Assay results: patent US4820715A, “Anti-emetic quinuclidinyl benzamides” (Bristol-Myers Company, priority 1987, dated 1989)
Counter-ions that a name gives are not always drawn.

Legend:
[1] = biological target: dopaminergic (D2) receptors (Rattus norvegicus, UniProt P61169); assay: biochemical; type: binding; conditions: striatal rat brain homogenates, ^3H-spiperone, 37° C., 15 minutes; read-out: 3H-Spiperone Displacement IC50
Experimental: Rats (150±10 g; Charles River) were decapitated, the corpus striatum dissected out and frozen on dry ice. The tissues were pooled and stored at -80° C. until used. Homogenates (Brinkmann Polytron) of the corpus striatum in cold HEPES.KOH buffer (final pH=7.4) were centrifuged at 39,000×G. The supernatant was discarded and the pellets were re-suspended in HEPES.KOH buffer and re-centrifuged as above.
Tests to determine the Inhibitory Concentration50 (IC50) of the compounds of Formula I and reference compounds versus ^3 H-spiperone were conducted as follows. Tubes containing either 100 μL of buffer mixture (for total binding), 100 μL of buffer mixture plus 100 μL of 10^-4 M D(+)-butaclamol (for blanks, i.e. non-specific binding), or 100 μL of buffer mixture containing 10^-7, 10^-6 or 10^-5 M test compound were prepared. To each were added 100 μL of a solution of ^3 H-spiperone (New England Nuclear) in buffer mixture (2000 c.p.m. in the incubation mixture) and 800 μL of the striatal tissue suspension. The tubes were then diluted to 1 mL with buffer mixture, giving a final concentration of 10^-8, 10^-7 or 10^-6 M test compound and approximately 100 pM ^3 H-spiperone. The samples were incubated at 37° C. for 15 minutes, filtered in vacuo on glass fiber filters and counted by liquid scintillation spectrometry. […] All samples were run in duplicate.

[2] = test system: Apomorphine-Induced Emesis; assay: Antagonism of Apomorphine-Induced Emesis in Dogs; type: in vivo, beagle dogs; conditions: Canis lupus familiaris, sc; s.c. 30 minutes prior to apomorphine 0.3 mg/kg; dog; read-out: Antagonism of Apomorphine-Induced Emesis in the Dog ED50
Experimental: Unfasted beagle dogs of both sexes were used as test subjects. Test compounds and apomorphine were each administered subcutaneously as aqueous solutions, with the test compound being administered 30 minutes prior to the administration of the apormorphine.
Apomorphine was administered at a dose of 0.3 mg/kg. […] All tests were run in at least two dogs.

Cisplatin-Induced Emesis = assay: Antagonism of Cisplatin-Induced Emesis in the Ferret; type: in vivo, Fitch ferrets; conditions: Mustela putorius, iv, 4 h, i.v. × 2, read-out: Antagonism of Cisplatin-Induced Emesis in the Ferret, % Protection
Source text: The ventral and dorsal area of the neck is shaved and a 3 cm incision is made. The left jugular vein is exposed and ligated with a silk suture at the cephalic end. The indwelling catheter is constructed of Silastic tubing 18 cm in length (0.020 inch I.D.×0.037 inch O.D.) with a 2 cm polyethylene sleeve (0.045 inch I.D.×0.062 inch O.D.) filled with heparin (1000 units/ml) and sealed at the exposed end with a 23 gauge×1 inch needle crimped at both ends. A small cut is made in the jugular and the catheter inserted, allowing the free end to be delivered through a 13 gauge×5 cm trochar under the skin and attached to the nape of the neck with a silk suture. The ferrets are housed in individual cages and allowed 2-4 days recovery before testing. On the test day, the test compounds were administered i.v. […] The cisplatin solution was prepared by adding 70° C. physiological saline, stirring and sonicating until dissolved. The resulting solution (4 mg/ml) was maintained at 40° C. and administered i.v. ([…]) via the catheter. Following administration of cisplatin, the ferrets were observed continuously for four hours and emetic episodes recorded. Two or more emetic episodes within a one-minutes period was considered as a single episode. The ferrets were euthanized with T-61 i.v. at the termination of the experiment, and proper placement of the catheter was verified.

[3] = test system: field-stimulated guinea pig ileum; assay: Gastrokinetic Activity: contraction of field-stimulated guinea pig ileum preparations; design: species or system guinea pig (Hartley); conditions: Cavia porcellus; for EC30: effective concentration30, read-out: EC30 (95% C.L.); for EC50: effective concentration50, read-out: EC50 (95% C.L.); for minimal effective concentration: read-out: Minimum Effective Concentration
Experimental: This activity is considered to be correlated with gastrokinetic (prokinetic) activity in vivo, i.e. enhancement of gastric motility and gastric emptying.
Normal, male guinea pigs (Hartley; Charles River) weighing […] are sacrificed by cervical dislocation. The terminal portion of the ileum was removed after discarding a 10 cm segment nearest to the ileocecal junction. The strips, 3-4 cm in length, were mounted in a 20 ml organ bath containing Krebs physiological buffer solution. The buffer was bubbled with 95% O2 -5% CO2 and kept at 37° C. The resting tension was adjusted to 1.0 g, and the tissues were equilibrated without stimulation for 15 minutes. For electrical stimulation, a platinum wire (cathode) was threaded up through the lumen and another platinum wire (anode) was attached to the glass rod that suspended the muscle. Tissues were stimulated coaxially at 1.5 times the voltage necessary to produce maximum twitch height, with single pulses, 0.5 msec in duration, delivered once every 10 seconds. After the 15 minute equilibration period (without stimulation), the stimulator (Grass S88 Stimulator) was turned on and the tissues were allowed to stabilize for approximately 1 hour, or until the twitch height remained constant, with washes every 20 minutes.

[4] = read-out: Average % Maximum Increase

dopaminergic (D2) receptors, sequence (P61169 whole entry): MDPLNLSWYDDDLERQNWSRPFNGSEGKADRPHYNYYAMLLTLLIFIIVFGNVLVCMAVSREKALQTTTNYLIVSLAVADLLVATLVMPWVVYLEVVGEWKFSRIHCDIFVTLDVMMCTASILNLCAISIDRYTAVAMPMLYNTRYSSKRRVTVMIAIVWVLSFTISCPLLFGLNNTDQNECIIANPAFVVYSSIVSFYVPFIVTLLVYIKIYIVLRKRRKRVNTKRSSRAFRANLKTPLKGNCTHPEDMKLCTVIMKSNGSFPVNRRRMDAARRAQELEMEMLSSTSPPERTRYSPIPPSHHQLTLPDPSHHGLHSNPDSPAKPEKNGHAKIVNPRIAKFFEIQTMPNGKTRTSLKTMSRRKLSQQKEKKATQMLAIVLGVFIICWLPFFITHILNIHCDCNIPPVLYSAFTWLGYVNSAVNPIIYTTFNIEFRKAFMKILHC

Structure (SMILES) | ED50 [2] | inhibition in vivo at 3 mg/kg (Cisplatin-Induced Emesis) | also measured
CO[C@@H]1CN(CCCOc2ccc(F)cc2)CC[C@@H]1NC(=O)c1cc(Cl)c(N)cc1OCCSC.O (relative stereo) [Example 61, Cis-4-amino-5-chloro-N-{1-[3-(4-fluorophenoxy)propyl]-3-methoxy-4-piperidinyl}-2-[2-(methylthio)ethoxy]benzamide monohydrate] | > 3 mg/kg | 71% | IC50 [1]: 760 nM
CO[C@@H]1CN(CCCOc2ccc(F)cc2)CC[C@@H]1NC(=O)c1cc(Cl)c(N)cc1OCC(N)=O (relative stereo) [Example 62, Cis-4-amino-2-(2-amino-2-oxoethoxy)-5-chloro-N-{1-[3-(4-fluorophenoxy)propyl]-3-methoxy-4-piperidinyl}benzamide sesquihydrate] | > 3 mg/kg | 71% | IC50 [1]: > 1000 nM
C=CCN1CCCC1CNC(=O)c1cc2[nH]nnc2cc1OC (stereo not shown) [Alizapride, reference compound] | 0.3 mg/kg | 27% | IC50 [1]: 290 nM
COc1cc(N)c(Cl)cc1C(=O)NC1CCN(Cc2ccccc2)CC1 [Clebopride, reference compound] | 0.04 mg/kg | 70% | IC50 [1]: 11 nM
C=CCC(C)(Oc1cc(N)c(Cl)cc1C(=O)NCCN(CC)CC)C(C)=O (stereo not shown) [Example 8, 4-Amino-5-chloro-N-[2-(diethylamino)ethyl]-2-[(3-methyl)-5-hexen-2-on-3-yl]oxybenzamide] | > 3 mg/kg | 95% | IC50 [1]: > 1000 nM
CCN(CC)CCNC(=O)c1cc(Cl)c(N)cc1OC(C)C#N (stereo not shown) [Example 14, 4-Amino-5-chloro-[2-(diethylamino)ethyl]-2-(1-cyano)ethoxybenzamide] | > 3 mg/kg | 62% | activation at 30 µM [3, 4]: 55%; EC30 [3]: 4.3 µM; EC50 [3]: 18 µM; minimal effective concentration [3]: 0.1 µM
CCN(CC)CCNC(=O)c1cc(Cl)c(N)cc1OCc1cc(C)no1 [Example 19, 4-Amino-5-chloro-N-[2-(diethylamino)ethyl]-2-(3-methylisoxazol-5-yl)methoxybenzamide] | > 3 mg/kg | 72% | activation at 3 µM ([3]; at 3 μM, read-out: Average % Maximum Increase): 39%; EC30 [3]: 1.7 µM; EC50 [3]: 5.9 µM; minimal effective concentration [3]: 0.1 µM
C=CCC(Oc1cc(N)c(Cl)cc1C(=O)NCCN(CC)CC)C(C)=O (stereo not shown) [Example 24, 4-Amino-5-chloro-N-[2-(diethylamino)ethyl]-2-(5-hexan-2-on-3-yl)oxybenzamide hydrochloride] | > 3 mg/kg | 67% | 
CCC(Oc1cc(N)c(Cl)cc1C(=O)NCCN(CC)CC)C(C)=O (stereo not shown) [Example 25, 4-Amino-5-chloro-N-[2-(diethylamino)ethyl]-2-(pentan-2-on-3-yl)oxybenzamide] | > 3 mg/kg |  | inhibition in vivo at 1 mg/kg (Cisplatin-Induced Emesis): 58%
CCC(=O)COc1cc(N)c(Cl)cc1C(=O)NCCN(CC)CC [Example 26, 4-Amino-2-(2-butanon-1-yl)oxy-5-chloro-N-[2-(diethylamino)-ethyl]benzamide] | > 3 mg/kg | 90% | 
CCCC(=O)COc1cc(N)c(Cl)cc1C(=O)NCCN(CC)CC [Example 27, 4-Amino-5-chloro-N-[2-(diethylamino)ethyl]-2-(pentan-2-on-1-yl)oxybenzamide] | > 3 mg/kg |  | inhibition in vivo at 1 mg/kg (Cisplatin-Induced Emesis): 90%
CCC(=O)C(C)Oc1cc(N)c(Cl)cc1C(=O)NCCN(CC)CC.Cl (stereo not shown) [Example 28, 4-Amino-5-chloro-2-(pentan-3-on-2-yl)oxy-N-(2-diethylaminoethyl)benzamide hydrochloride] | > 3 mg/kg |  | inhibition in vivo at 1 mg/kg (Cisplatin-Induced Emesis): 82%
CCN(CC)CCNC(=O)c1cc(Cl)c(N)cc1OCC(=O)C(C)C [Example 29, 4-Amino-5-chloro-N-[2-(diethylamino)ethyl]-2-[(3-methyl)-butan-2-on-1-yl]oxybenzamide] | > 3 mg/kg |  | inhibition in vivo at 1 mg/kg (Cisplatin-Induced Emesis): 44%
CCN(CC)CCNC(=O)c1cc(Cl)c(N)cc1OCC(=O)Cc1ccccc1 [Example 30, 4-Amino-5-chloro-N-[2-(diethylamino)ethyl]-2-(3-phenyl-2-propanon-1-yl)oxybenzamide] | > 3 mg/kg | 100% | 
CCN(CC)CCNC(=O)c1cc(Cl)c(N)cc1OC(C)(C)C(C)=O.O [Example 31, 4-Amino-5-chloro-N-[2-(diethylamino)ethyl]-2-[(3-methyl)butan-2-on-3-yl]oxybenzamide monohydrate] | > 3 mg/kg |  | inhibition in vivo at 1 mg/kg (Cisplatin-Induced Emesis): 67%
CCN(CC)CCNC(=O)c1cc(Cl)c(N)cc1OCC(O)Cc1ccccc1 (stereo not shown) [Example 33, 4-Amino-5-chloro-N-[2-(diethylamino)ethyl]-2-[2-(2-hydroxy-3-phenylpropyl)]oxybenzamide] | > 3 mg/kg |  | inhibition in vivo at 1 mg/kg (Cisplatin-Induced Emesis): 54%
CCN(CC)CCNC(=O)c1cc(Cl)c(N)cc1OCC1OCCO1 [Example 43] | > 3 mg/kg | 67% | 
CCN(CC)CCNC(=O)c1cc(Cl)c(N)cc1OCc1ccccn1 [Example 45, 4-Amino-5-chloro-N-[2-(diethylamino)ethyl]-2-(2-pyridinomethyl)oxybenzamide] | > 3 mg/kg | 80% | 
CCN(CC)CCNC(=O)c1cc(Cl)c(N)cc1OCCOCCOC [Example 46, 4-Amino-5-chloro-N-[2-(diethylamino)ethyl]-2-(2-methoxyethoxyethyl)oxybenzamide] | > 3 mg/kg | 76% | 
CCN(CC)CCNC(=O)c1cc(Cl)c(N)cc1OCC1=NCCN1 [Example 51, 4-Amino-5-chloro-N-[2-(diethylamino)ethyl]-2-(1H-4,5-dihydroimidazol-2-yl)methoxybenzamide] | > 3 mg/kg | 71% | activation at 10 µM ([3]; at 10 μM, read-out: Average % Maximum Increase): 51%; EC30 [3]: 0.23 µM; EC50 [3]: 5 µM; minimal effective concentration [3]: 0.03 µM
CCN(CC)CCNC(=O)c1cc(Cl)c(N)cc1OCC(=O)c1cccs1 [Example 52, 4-Amino-5-chloro-N-[2-(diethylamino)ethyl]-2-(2-thienoylmethoxy)benzamide] | > 3 mg/kg | 95% | 
CCN(CC)CCNC(=O)c1cc(Cl)c(N)cc1OCCC1(C)OCCO1 [Example 54] | > 3 mg/kg | 81% | 
CCN(CC)CCNC(=O)c1cc(Cl)c(N)cc1OC [Metoclopramide, reference compound] | 0.5 mg/kg | 89% | activation at 30 µM [3, 4]: 62%; EC30 [3]: 1.6 µM; EC50 [3]: 11 µM; minimal effective concentration [3]: 0.03 µM
